Laboratory results reported in PubChem BioAssay AID248 (DTP/NCI, 2004).
Several values for one entry are separate records, joined by “and”; a condition that tells them apart may be missing. Identical values can stand only once. Toxic doses and inconclusive results are not listed. Cut-off read from the data, not from the text of the source: active = T/C of 150% or more; inactive = T/C below 125%.

Tested on: L1210 leukemia ip in BDF1 mice, survival T/C
Assay: NCI In Vivo Anticancer Drug Screen. Data for tumor model L1210 Leukemia (intraperitoneal) in B6D2F1 (BDF1) mice
Conditions: endpoint: mean survival time, higher = longer survival
Method: The antitumor activity of compounds was measured in mice bearing transplantable tumors. Survival or tumor size were measured and the results are expressed as the measurement made in the treated group (T) divided by the measurement made in the vehicle treated control group (C). The tumor model used in this assay is L1210 Leukemia (intraperitoneal) in B6D2F1 (BDF1) mice

[1] = dose: 100.0 mg/kg/injection, schedule: Q01DX009 (ip), vehicle: Klucel (hydroxypropylcellulose) (HPC)
[2] = dose: 200.0 mg/kg/injection, schedule: Q01DX009 (ip), vehicle: Klucel (hydroxypropylcellulose) (HPC)
[3] = dose: 400.0 mg/kg/injection, schedule: Q01DX009 (ip), vehicle: Klucel (hydroxypropylcellulose) (HPC)
[4] = dose: 100.0 mg/kg/injection, schedule: Q04DX003 (ip), vehicle: saline with Tween-80
[5] = dose: 200.0 mg/kg/injection, schedule: Q04DX003 (ip), vehicle: saline with Tween-80
[6] = dose: 400.0 mg/kg/injection, schedule: Q04DX003 (ip), vehicle: saline with Tween-80
[7] = dose: 100.0 mg/kg/injection, schedule: Q04DX002 (ip), vehicle: Klucel (hydroxypropylcellulose) (HPC)
[8] = dose: 200.0 mg/kg/injection, schedule: Q04DX002 (ip), vehicle: Klucel (hydroxypropylcellulose) (HPC)
[9] = dose: 400.0 mg/kg/injection, schedule: Q04DX002 (ip), vehicle: Klucel (hydroxypropylcellulose) (HPC)
[10] = dose: 100.0 mg/kg/injection, schedule: Q04DX003 (ip), vehicle: Klucel (hydroxypropylcellulose) (HPC)
[11] = dose: 200.0 mg/kg/injection, schedule: Q04DX003 (ip), vehicle: Klucel (hydroxypropylcellulose) (HPC)
[12] = dose: 400.0 mg/kg/injection, schedule: Q04DX003 (ip), vehicle: Klucel (hydroxypropylcellulose) (HPC)
[13] = dose: 25.0 mg/kg/injection, schedule: Q04DX003 (ip), vehicle: Klucel (hydroxypropylcellulose) (HPC)
[14] = dose: 50.0 mg/kg/injection, schedule: Q04DX003 (ip), vehicle: Klucel (hydroxypropylcellulose) (HPC)
[15] = dose: 100.0 mg/kg/injection, schedule: Q01DX001 (ip), vehicle: carboxymethylcellulose (CMC)
[16] = dose: 200.0 mg/kg/injection, schedule: Q01DX001 (ip), vehicle: carboxymethylcellulose (CMC)
[17] = dose: 50.0 mg/kg/injection, schedule: Q01DX009 (ip), vehicle: saline with Tween-80
[18] = dose: 100.0 mg/kg/injection, schedule: Q01DX009 (ip), vehicle: saline with Tween-80
[19] = dose: 200.0 mg/kg/injection, schedule: Q01DX009 (ip), vehicle: saline with Tween-80
[20] = dose: 400.0 mg/kg/injection, schedule: Q01DX009 (ip), vehicle: saline with Tween-80
[21] = dose: 50.0 mg/kg/injection, schedule: Q01DX001 (ip), vehicle: saline
[22] = dose: 100.0 mg/kg/injection, schedule: Q01DX001 (ip), vehicle: saline
[23] = dose: 200.0 mg/kg/injection, schedule: Q01DX001 (ip), vehicle: saline
[24] = dose: 400.0 mg/kg/injection, schedule: Q01DX001 (ip), vehicle: saline
[25] = dose: 50.0 mg/kg/injection, schedule: Q01DX009 (ip), vehicle: Klucel (hydroxypropylcellulose) (HPC)
[26] = dose: 400.0 mg/kg/injection, schedule: Q01DX001 (ip), vehicle: carboxymethylcellulose (CMC)

Measured: T/C

Cc1ccc(NC(c2cc(Br)ccc2O)P(=O)(c2ccccc2)c2ccccc2)c([N+](=O)[O-])c1 (stereo unspecified)
inactive: [1] 93 % of control | [2] 96 % of control | [3] 96 % of control

CCCCC(CC)COc1nc(OCC(CC)CCCC)nc(OCC(CC)CCCC)n1 (stereo unspecified)
inactive: dose: 25.6 mg/kg/injection, schedule: Q04DX002 (ip), vehicle: saline with Tween-80 91 % of control | dose: 64.0 mg/kg/injection, schedule: Q04DX002 (ip), vehicle: saline with Tween-80 91 % of control | [4] 88 % of control | dose: 160.0 mg/kg/injection, schedule: Q04DX002 (ip), vehicle: saline with Tween-80 91 % of control | [5] 92 % of control | dose: 400.0 mg/kg/injection, schedule: Q04DX002 (ip), vehicle: saline with Tween-80 87 % of control | [6] 87 % of control

ClCc1nc2ccccc2s1
inactive: [1] 91 % of control | [7] 92 % of control | [2] 98 % of control | [8] 103 % of control | [9] 103 % of control

Cc1cccc(C)c1NC(=O)Nc1ccc(C(=O)O)cc1
inactive: [1] 101 % of control | [2] 108 % of control | [3] 103 % of control

CCOC(=O)/C(C)=C\C1C(C)=CC(=O)CC1(C)C (stereo unspecified)
inactive: [10] 102 % of control | [11] 95 % of control | [12] 100 % of control

CC(C)(C)c1ccc(CC#N)cc1
inactive: [13] 97 % of control | [14] 94 % of control | [10] 90 % of control

CC(O)C1CCN(Cc2ccccc2)CC1 (stereo unspecified)
inactive: dose: 50.0 mg/kg/injection, schedule: Q01DX001 (ip), vehicle: carboxymethylcellulose (CMC) 101 % of control | [15] 108 % of control | [16] 106 % of control

CC(=O)Oc1cc(OC(C)=O)c2c(OC(C)=O)c3c(OC(C)=O)cc(C)cc3cc2c1
inactive: dose: 5.0 mg/kg/injection, schedule: Q01DX001 (ip), vehicle: saline 112 % of control | dose: 10.0 mg/kg/injection, schedule: Q01DX001 (ip), vehicle: saline 113 % of control

O=C1NC(=O)C(CSCc2ccccc2)(CSCc2ccccc2)N1
inactive: [17] 94 % of control | [18] 92 % of control and 102 % of control | [19] 94 % of control and 97 % of control | [20] 100 % of control

COc1ccc(C(=O)C(C)C=O)c(OCc2ccccc2)c1OC (stereo unspecified)
inactive: [17] 98 % of control | [18] 96 % of control | [4] 114 % of control | [19] 93 % of control | [5] 95 % of control | [20] 97 % of control | [6] 103 % of control

COCCNC(=O)NS(=O)(=O)c1ccc(C)cc1
inactive: [4] 98 % of control | [5] 98 % of control | [6] 96 % of control

O=C(O)Cc1ccc2ccccc2c1
inactive: [21] 101 % of control | [22] 103 % of control | [23] 107 % of control | [24] 103 % of control

CCCCCCCCCCCCOC(C(=O)O)(c1ccccc1)c1ccccc1
inactive: dose: 25.0 mg/kg/injection, schedule: Q04DX003 (ip), vehicle: saline with Tween-80 100 % of control | dose: 50.0 mg/kg/injection, schedule: Q04DX003 (ip), vehicle: saline with Tween-80 91 % of control | [4] 98 % of control and 89 % of control

NS(=O)(=O)c1ccc(NC(=O)Nc2cccc(C(F)(F)F)c2)cc1
inactive: [1] 97 % of control | [7] 94 % of control | [2] 91 % of control | [8] 91 % of control | [3] 94 % of control | [9] 97 % of control

O=C(O)c1ccccc1SCc1cc(=O)[nH]c(=O)[nH]1
inactive: [4] 102 % of control | [5] 102 % of control | [6] 98 % of control

CC(N)(COC(=O)c1ccccc1)C(=O)O (stereo unspecified)
inactive: dose: 100.0 mg/kg/injection, schedule: Q04DX003 (ip), vehicle: saline 107 % of control | dose: 200.0 mg/kg/injection, schedule: Q04DX003 (ip), vehicle: saline 96 % of control | dose: 400.0 mg/kg/injection, schedule: Q04DX003 (ip), vehicle: saline 98 % of control

O=C(CCC(=O)Nc1ccc(Cl)c(Cl)c1)Nc1ccc(Cl)c(Cl)c1
inactive: [7] 93 % of control | [8] 89 % of control | [9] 104 % of control

NC(=O)c1ccccc1NC(=O)Nc1cccc(C(F)(F)F)c1
inactive: [1] 86 % of control | [7] 102 % of control | [2] 89 % of control | [8] 105 % of control | [3] 93 % of control | [9] 108 % of control

Cc1cc(Cl)c2ccccc2c1N
inactive: [18] 106 % of control | [4] 104 % of control | [19] 96 % of control | [5] 102 % of control | [20] 98 % of control | [6] 100 % of control

O=C(NC(C(O)CO)C(OC(=O)c1ccccc1)C(O)CO)c1ccccc1 (stereo unspecified)
inactive: [18] 105 % of control | [19] 94 % of control | [20] 94 % of control

O=C(Nc1ccccc1)c1ccco1
inactive: [25] 102 % of control | [1] 102 % of control | [7] 102 % of control | [2] 100 % of control | [8] 98 % of control | [9] 91 % of control

CCN(CC)C(C)COC(=O)c1ccc(N)cc1 (stereo unspecified)
inactive: dose: 12.5 mg/kg/injection, schedule: Q01DX009 (ip), vehicle: saline 101 % of control | dose: 25.0 mg/kg/injection, schedule: Q01DX009 (ip), vehicle: saline 101 % of control | dose: 50.0 mg/kg/injection, schedule: Q01DX009 (ip), vehicle: saline 95 % of control

NNC(=S)NC1CCCCC1
inactive: [13] 100 % of control | [14] 95 % of control | [10] 95 % of control and 90 % of control | [4] 96 % of control | [5] 96 % of control | [6] 96 % of control

Nc1ncnc2c1ncn2C1OC(CO)C(NC(=O)C(CCCCNC(=O)OCc2ccccc2)NC(=O)OCc2ccccc2)C1O (stereo unspecified)
inactive: [22] 102 % of control | [23] 100 % of control | [24] 100 % of control

CS(=O)(=O)OCCN(CCOS(C)(=O)=O)c1ccc(C=Nc2ccc(-c3cnc(-c4ccc(Cl)cc4)s3)cc2)c(Cl)c1
inactive: dose: 25.0 mg/kg/injection, schedule: Q01DX009 (ip), vehicle: Klucel (hydroxypropylcellulose) (HPC) 98 % of control | [25] 107 % of control | [1] 109 % of control

Cc1ccc([N+](=O)[O-])cc1NC(=O)Nc1ccc(S(N)(=O)=O)cc1
inactive: [1] 97 % of control | [10] 96 % of control | [2] 98 % of control | [11] 92 % of control | [3] 103 % of control | [12] 91 % of control

O=[N+]([O-])c1cccc([N+](=O)[O-])c1Cl
inactive: [15] 114 % of control | [16] 108 % of control | [26] 108 % of control

COc1cc(-c2cc(OC)c(N=N/C(=N/Nc3ccc([N+](=O)[O-])cc3)c3ccc([N+](=O)[O-])cc3)cc2Cl)c(Cl)cc1N=N/C(=N\Nc1ccc([N+](=O)[O-])cc1)c1ccc([N+](=O)[O-])cc1
inactive: [21] 103 % of control | [22] 94 % of control | [23] 103 % of control | [24] 94 % of control

CSc1nc(N)c(N=Nc2ccc(S(=O)(=O)Nc3nnc(C)s3)cc2)c(=O)[nH]1
inactive: [15] 95 % of control | [16] 97 % of control | [26] 101 % of control

CC(C)NC(=O)c1ccc(/C=N/N(C)C)cc1
inactive: [13] 104 % of control | [14] 106 % of control | [10] 95 % of control | [11] 101 % of control
